From ChEMBL document CHEMBL1128935, “Synthesis and antibacterial, activity of 4-ureido trinems” (1996)
Converted amounts (≈) assume the structure as drawn.

Assays:
Assay type in all cases: functional
[1] = tested on: Pseudomonas aeruginosa; test: In vitro antibacterial activity against Pseudomonas aeruginosa 2032 WT.
[2] = tested on: Bacteroides fragilis; test: In vitro antibacterial activity against Bacteroides fragilis 2017.
[3] = tested on: Escherichia coli; test: In vitro antibacterial activity against Escherichia coli 1850 WT.
[4] = tested on: Streptococcus pneumoniae; test: In vitro antibacterial activity against Streptococcus pneumoniae 3512.
[5] = tested on: Clostridium perfringens; test: In vitro antibacterial activity against Clostridium perfringens 615.
[6] = tested on: Staphylococcus aureus; test: In vitro antibacterial activity against Staphylococcus aureus 853.
[7] = tested on: Escherichia coli; test: In vitro antibacterial activity against Escherichia coli 1919 PM.
[8] = tested on: Pseudomonas aeruginosa; test: In vitro antibacterial activity against Pseudomonas aeruginosa P. aeruginosa 1911.

| SMILES | MIC [1] [µg/mL] | MIC [2] [µg/mL] | MIC [3] [µg/mL] | MIC [4] [µg/mL] | MIC [5] [µg/mL] | MIC [6] [µg/mL] | MIC [7] [µg/mL] | MIC [8] [µg/mL] |
| --- | --- | --- | --- | --- | --- | --- | --- | --- |
| C[C@@H](O)[C@H]1C(=O)N2C(C(=O)[O-])=C3[C@H](CCC[C@@H]3N(C)C(=O)NC(C)(C)C)[C@H]12.[Na+] | 2 | 0.5 | 4 | < 0.12 | < 0.12 | 0.5 | 0.5 | 16 |
| C[C@@H](O)[C@H]1C(=O)N2C(C(=O)O)=C(SCCNC=N)C[C@H]12 [IMIPENEM ANHYDROUS] | 4 (≈ 13.4 µM) | 0.06 (≈ 0.2 µM) | 0.5 (≈ 1.67 µM) | < 0.01 | 0.03 (≈ 0.1 µM) | 0.1 (≈ 0.334 µM) | 0.5 (≈ 1.67 µM) | 4 (≈ 13.4 µM) |
| C[C@@H](O)[C@H]1C(=O)N2C(C(=O)[O-])=C3[C@H](CCC[C@@H]3N(C)C(N)=O)[C@H]12.[Na+] | 1 | < 0.12 | 0.25 | < 0.12 | < 0.12 | < 0.12 | < 0.12 | 8 |
| C[C@@H](O)[C@H]1C(=O)N2C(C(=O)[O-])=C3[C@H](CCC[C@@H]3N(C)C(=O)NCCO)[C@H]12.[Na+] | 8 | 0.25 | 0.5 | < 0.12 | < 0.12 | 0.25 | < 0.12 | 16 |
| CCNC(=O)N(C)[C@H]1CCC[C@H]2C1=C(C(=O)[O-])N1C(=O)[C@H]([C@@H](C)O)[C@@H]21.[Na+] | 4 | 0.5 | 2 | < 0.12 | < 0.12 | 0.25 | 0.25 | 16 |
| CO[C@H]1CCC[C@H]2C1=C(C(=O)[O-])N1C(=O)[C@H]([C@@H](C)O)[C@@H]21.[Na+] [SANFETRINEM SODIUM] | 16 | 0.06 | 0.5 | < 0.01 | 0.03 | 0.25 | 0.5 | > 32 |
